Consider 41 compounds from patent US20100113436A1, “DISPIRO TETRAOXANE COMPOUNDS AND THEIR USE IN THE TREATMENT OF MALARIA AND/OR CANCER” (priority 2006, published 2010).

Like-named read-outs stand apart in the source and are kept apart here.

For data set [1], the system named is 3D7 strain of Plasmodium falciparum. Nature of the data set: In vitro antimalarial activity, 48-h [3H]-hypoxanthine incorporation assay. It counts as cell-based. The method, then: The 3D7 strain of Plasmodium falciparum was used in this study. This strain is known to be […] Parasites were maintained in continuous culture using the method of Jensen and Trager^4. […] Stock drug solutions were prepared in 100% dimethylsulphoxide (DMSO) and diluted to the appropriate concentration using complete medium. Assays were performed in sterile 96-well microlitre plates, each plate contained 200 μl of parasite culture (2% parasitemia, 0.5% haematocrit) with or without 10 μl drug dilutions. Each drug was tested in triplicate and parasite growth compared to control wells (which constituted 100% parasite growth). […] IC50 values were calculated by interpolation of the probit transformation of the log dose-response curve.

For data set [2], the system named is Salmonella typhimurium NM2009. Kind of data set: Salmonella typhimurium SOS/umu genotoxicity assay. The source says: (§1) This assay is based on the ability of DNA damaging agents to induce the expression of the umu operon. The Salmonella strains have a plasmid pSK1002 which carries an umuC-lacZ fused gene that produces a hybrid protein with β-galactosidase activity and whose expression is controlled by the umu regulatory region.

Data set [3] has as its system Salmonella typhimurium TA1535/pSK1002. Nature of the data set: Salmonella typhimurium SOS/umu genotoxicity assay.
Description: as §1

[4] abbreviates: 3D7, 3D7 strain, mean of triplicate results, Table 5, read-out: Mean IC50.
Where [5] appears, read: 3D7, sulfonamide dispiro 1,2,4,5-tetraoxanes, Table 8, read-out: Mean IC50.

As to `COC(=O)[C@@H](NC(=O)CC1CCC2(CC1)OOC1(OO2)C2CC3CC(C2)CC1C3)C(C)C` (stereo in doubt) [Tetraoxane 29j, Adamantyl acetamide], the melting point (commonly the temperature of the solid-liquid transition) was in the range of 108 to 110 °C. For the compound `C[C@@H]1CC[C@H]2[C@@H](C)C(=O)O[C@@H]3O[C@@]4(C)CC[C@@H]1[C@]32OO4` [Artemisinin, reference compound], the IC50 – broadly, the concentration at which inhibition is half-maximal – in data set [1] (setting [4]) came to 9.5 nM; in data set [1] (setting [5]) it was 9.2 nM. `O=C1CCC2(CC1)OOC1(CCCCC1)OO2` [Tetraoxane 10, 7,8,15,16-Tetraoxa-dispiro[5.2.5.2]hexadecan-3-one] showed a melting point of 78 to 80 °C. Also, the IC50 in data set [1] (setting [4]) is 6 nM. As for `O=C1CCC2(CC1)OOC1(CCCCCCCCCCC1)OO2` [Tetraoxane 11, 7,8,21,22-Tetraoxa-dispiro[5.2.11.2]docosan-3-one], the melting point was 108 to 110 °C. In turn, `O=C1CCC2(CC1)OOC1(OO2)C2CC3CC(C2)CC1C3` [Tetraoxane 12, adamantane tetraoxane ketone] had a melting point of 156 to 158 °C. Regarding `C1CCC2(CC1)OOC1(CCC(NC3CC3)CC1)OO2` [Tetraoxane 14, Cyclopropyl-(7,8,15,16-tetraoxa-dispiro[5.2.5.2]hexadec-3-yl)-amine], the IC50 in data set [1] (setting [4]) stood at 20 nM. The same measure, in the same setting: next, `C1CCC2(CC1)OOC1(CCC(N3CCOCC3)CC1)OO2` [Tetraoxane 19, 4-(7,8,15,16-Tetraoxa-dispiro[5.2.5.2]hexadec-3-yl)-morpholine]: 29.4 nM. Still for that read-out and setting: next, `CCOC(=O)CC1CCC2(CC1)OOC1(CCCCC1)OO2` [Tetraoxane 27a, (7,8,15,16-Tetraoxa-dispiro[5.2.5.2]hexadec-3-yl)acetic acid ethyl ester]: 24.2 nM. Turning to `O=C(CC1CCC2(CC1)OOC1(CCCCC1)OO2)NCCN1CCCC1` [Tetraoxane 27d, N-(2-Pyrrolidin-1-yl-ethyl)-2-(7,8,15,16-tetraoxa-dispiro[5.2.5.2]-hexadec-3-yl)-acetamide], the melting point was in the range of 110 to 112 °C. In addition, in data set [1] (setting [4]), the 50% inhibitory concentration (IC50) is 19.1 nM. The like results for `O=C(CC1CCC2(CC1)OOC1(CCCCC1)OO2)NCCN1CCCCC1` [Tetraoxane 27e, N-(2-Piperidin-1-yl-ethyl)-2-(7,8,15,16-tetraoxa-dispiro[5.2.5.2]-hexadec-3-yl)-acetamide] were, in that order, 68 to 78 °C and 19.2 nM.

On to `O=C(CC1CCC2(CC1)OOC1(CCCCC1)OO2)NCCN1CCOCC1` [Tetraoxane 27f, N-(2-Morpholin-4-yl-ethyl)-2-(7,8,15,16-tetraoxa-dispiro[5.2.5.2]-hexadec-3-yl)-acetamide], for which the IC50 in data set [1] (setting [4]) came to 19.1 nM.

Take `CCN(CC)CCNC(=O)CC1CCC2(CC1)OOC1(CCCCC1)OO2` [Tetraoxane 27g, N-(2-Diethylamino-ethyl)-2-(7,8,15,16-tetraoxa-dispiro[5.2.5.2]-hexadec-3-yl)-acetamide]: in data set [1] (setting [4]), the IC50 stood at 5.15 nM. Compound `O=C(CC1CCC2(CC1)OOC1(CCCCCCCCCCC1)OO2)NC1CC1` [Tetraoxane 28c, N-Cyclopropyl-2-(7,8,21,22-tetraoxa-dispiro[5.2.11.2]docos-3-yl)-acet-amide] yielded a melting point of 136 to 138 °C. In data set [1] (setting [4]), the IC50 is 18.7 nM. `O=C(CC1CCC2(CC1)OOC1(CCCCCCCCCCC1)OO2)NCCN1CCCC1` [Tetraoxane 28d, N-(2-Pyrrolidin-1-yl-ethyl)-2-(7,8,21,22-tetraoxa-dispiro[5.2.11.2]do-cos-3-yl)-acetamide] registered a melting point of 108 to 110 °C. Same read-out and setting: under `O=C(CC1CCC2(CC1)OOC1(CCCCCCCCCCC1)OO2)NCCN1CCCCC1` [Tetraoxane 28e, N-(2-Piperidin-1-yl-ethyl)-2-(7,8,21,22-tetraoxadispiro[5.2.11.2]-docos-3-yl)-acetamide] stands 96 to 98 °C; under `O=C(CC1CCC2(CC1)OOC1(CCCCCCCCCCC1)OO2)NCCN1CCOCC1` [Tetraoxane 28f, N-(2-Morpholin-4-yl-ethyl)-2-(7,8,21,22-tetraoxa-dispiro[5.2.11.2]do-cos-3-yl)-acetamide], 78 to 80 °C; under `CCN(CC)CCNC(=O)CC1CCC2(CC1)OOC1(CCCCCCCCCCC1)OO2` [Tetraoxane 28g, N-(2-Diethylamino-ethyl)-2-(7,8,21,22-tetraoxa-dispiro[5.2.11.2]-docos-3-yl)-acetamide], 64 to 66 °C. Compound `O=C(CC1CCC2(CC1)OOC1(CCCCCCCCCCC1)OO2)N1CCOCC1` [Tetraoxane 28h, 1-Morpholin-4-yl-2-(7,8,21,22-tetraoxa-dispiro[5.2.11.2]docos-3-yl)-ethanone] had a melting point of 118 to 120 °C. The IC50 in data set [1] (setting [4]) came out at 23.7 nM. In the case of `O=C(CC1CCC2(CC1)OOC1(CCCCCCCCCCC1)OO2)N1CCSCC1` [Tetraoxane 28i, 2-(7,8,21,22-Tetraoxa-dispiro[5.2.11.2]docos-3-yl)-1-thiomorpholin-4-yl-ethanone], the melting point is 108 to 110 °C. Further, in data set [1] (setting [4]), the IC50 amounted to 26.9 nM.

Take `O=C(CC1CCC2(CC1)OOC1(OO2)C2CC3CC(C2)CC1C3)NCCN1CCCC1` (stereo not shown) [Tetraoxane 29d]: the melting point lay within 142 to 144 °C.

Take `O=C(CC1CCC2(CC1)OOC1(OO2)C2CC3CC(C2)CC1C3)NCCN1CCCCC1` (stereo not shown) [Tetraoxane 29e, N-(2-Piperidin-1-yl-ethyl)-[adamantyl]acetamide]: the melting point lay within 119 to 121 °C. Take `O=C(CC1CCC2(CC1)OOC1(OO2)C2CC3CC(C2)CC1C3)N1CCSCC1` (stereo not shown) [Tetraoxane 29i, Tetraoxa-dispiro-(adamantly)-thiomorpholin-4-yl-ethanone]: the melting point was 150 to 152 °C. In data set [1] (setting [4]), the IC50 is 5.9 nM. Regarding `O=C(CC1CCC2(CC1)OOC1(OO2)C2CC3CC(C2)CC1C3)N1CCCCC1` (stereo not shown) [Tetraoxane 29m], the IC50 in data set [1] (setting [4]) was found to be 0.5 nM. The same measure, in the same setting: under `CC(C)CN1CCN(C(=O)CC2CCC3(CC2)OOC2(OO3)C3CC4CC(C3)CC2C4)CC1` (stereo not shown) [Tetraoxane 29s] stands 2.7 nM. In the case of `O=C(CC1CCC2(CC1)OOC1(CCCCCCCCCCC1)OO2)N1CCS(=O)(=O)CC1` [Tetraoxane 31, 1-(1,1-Dioxo-1λ^6-thiomorpholin-4-yl)-2-(7,8,21,22-tetraoxa-dispiro[5.2.11.2]docos-3-yl)-ethanone], the melting point lay within 170 to 172 °C. The IC50 in data set [1] (setting [4]) amounted to 92.6 nM. The like results for `O=C(CC1CCC2(CC1)OOC1(OO2)C2CC3CC(C2)CC1C3)N1CCS(=O)(=O)CC1` (stereo not shown) [Tetraoxane 32, 1-(1,1-Dioxo-1λ^6-thiommpholin-4-yl)-2-tetraoxa-dispiro-adamantyl ethanone] were, in that order, 189 to 191 °C and 24.2 nM. As to `O=C1CCN(C(=O)N2CCOCC2)CC1` [Tetraoxane 34f, 1-(Morpholine-4-carbonyl)-piperidin-4-one], the IC50 in data set [1] (3D7, read-out: Mean IC50) was 4.7 nM. On the same count and under the same terms, next, `O=C(N1CCCCC1)N1CCC(OO)(OO)CC1` [Tetraoxane 34i, (4,4-dihydroperoxypiperidin-1-yl)(piperidin-1-yl)methanone]: 7.2 nM; `O=C(N1CCCCC1)N1CCC2(CC1)OOC1(CCCCC1)OO2` [Tetraoxane 34k]: 7 nM. On to `CS(=O)(=O)N1CCC2(CC1)OOC1(OO2)C2CC3CC(C2)CC1C3` [Tetraoxane 39a], for which the IC50 in data set [1] (setting [5]) was found to be 10.2 nM. On the same count and under the same terms, next, `CC(C)S(=O)(=O)N1CCC2(CC1)OOC1(OO2)C2CC3CC(C2)CC1C3` [Tetraoxane 39c]: 5.87 nM; `O=S(=O)(CC(F)(F)F)N1CCC2(CC1)OOC1(OO2)C2CC3CC(C2)CC1C3` [Tetraoxane 39e]: 14.3 nM. On the same count and under the same terms, next, `O=S(=O)(c1ccc(F)cc1)N1CCC2(CC1)OOC1(OO2)C2CC3CC(C2)CC1C3` [Tetraoxane 39g]: 16.7 nM; `O=S(=O)(c1ccc(Cl)cc1)N1CCC2(CC1)OOC1(OO2)C2CC3CC(C2)CC1C3` [Tetraoxane 39h]: 22.7 nM; `O=S(=O)(c1ccc(C(F)(F)F)cc1)N1CCC2(CC1)OOC1(OO2)C2CC3CC(C2)CC1C3` [Tetraoxane 39i]: 20.7 nM. Regarding `CS(=O)(=O)N1CCC2(CC1)OOC1(CCCCCCCCCCC1)OO2` [Tetraoxane 40a], the IC50 in data set [1] (setting [5]) turned out to be 27.8 nM. In the case of `CCS(=O)(=O)N1CCC2(CC1)OOC1(CCCCCCCCCCC1)OO2` [Tetraoxane 40b], the IC50 in data set [1] (setting [5]) came out at 29.1 nM. Consider `CC(C)S(=O)(=O)N1CCC2(CC1)OOC1(CCCCCCCCCCC1)OO2` [Tetraoxane 40c], for which the half-maximal inhibitory concentration (IC50) in data set [1] (setting [5]) amounted to 86.4 nM. Same read-out and setting: next, `O=S(=O)(c1ccccc1)N1CCC2(CC1)OOC1(CCCCCCCCCCC1)OO2` [Tetraoxane 40d]: 131 nM; `CCS(=O)(=O)N1C2CCC1CC1(C2)OOC2(OO1)C1CC3CC(C1)CC2C3` (stereo not shown) [Tetraoxane 41d, Tropinone derived 1,2,4,5-tetraoxane]: 60.6 nM.

As for `CC(C)(C)NCc1cc(Nc2ccnc3cc(Cl)ccc23)ccc1Cl` [Tetraoxane D535, 4′Chloro N-tertbutyl amodiaquin, reference compound], in data set [2], the “MCE NM2009 (Maximum Co w/o effects on bacteria growth or beta-galactosidase production)” value was determined as 140 µM and the Potential genotox entry is on record as “NEG”. Also, the “MCE TA1535 (Maximum Co w/o effects on bacteria growth or β-galactosidase production)” value in data set [3] came to 140 µM. Besides, in data set [3] (−S9), the “Max. Fold Increase” value is 1.10 ± 0.07 fold and the Potential genotox result was “NEG”.
